# Measured values published in ChEMBL document CHEMBL5131381, “Design, synthesis, and mechanistic investigations of phenylalanine derivatives containing a benzothiazole moiety as HIV-1 capsid inhibitors with improved metabolic stability” (Eur J Med Chem, 2022).
# Activity calls are given as the source filed them. The calls are words filed in the database; no cut-off is given here.
# What was measured:
# MT4 = experiment: Cytotoxicity against mock infected human MT4 cells by MTT assay; type: toxicity, cell-based
# [1] = test system: Human immunodeficiency virus 1; experiment: Antiviral activity against HIV-1 3B infected in human MT4 cells assessed as protection against virus-induced cytopathic effect by MTT assay; type: functional, organism-based; details: Human immunodeficiency virus 1, 3B
# [2] = Metabolic stability in human plasma assessed as parent compound remaining measured after 120 mins by LC-MS/MS analysis; type: ADME, cell-free; details: 2 h
# in vitro = details: human, liver microsomes
# [3] = test system: Human immunodeficiency virus 1; experiment: Antiviral activity against HIV-1 NL4-3 Env-deficient pseudotype virus infected in U87/CD4/CCR5 cells assessed as reduction in viral infection in late stage measured after 48 hrs by luciferase activity based single-round infection assay; type: functional, organism-based
# [4] = test system: Human immunodeficiency virus 1; experiment: Antiviral activity against HIV-1 NL4-3 Env-deficient pseudotype virus infected in U87/CD4/CCR5 cells assessed as reduction in viral infection in early stage measured after 48 hrs by luciferase activity based single-round infection assay; type: functional, organism-based
Structure (SMILES),CC50 (MT4),EC50 [1],other results
CN(C(=O)[C@H](Cc1ccccc1)NC(=O)c1cccc(C(=O)Nc2ccc(C#N)cc2)c1)c1ccc2scnc2c1,> 224 µM,13.2 µM,
CN(C(=O)[C@H](Cc1ccccc1)NC(=O)c1cccc(C(=O)N2CCN(C(=O)OC(C)(C)C)CC2)c1)c1ccc2scnc2c1,93.9 µM,13.5 µM,
CN(C(=O)[C@H](Cc1ccccc1)NC(=O)c1cccc(C(=O)Nc2ccc(F)cc2)c1)c1ccc2scnc2c1,54 µM,31.8 µM,
C#CCNC(=O)c1cccc(C(=O)N[C@@H](Cc2ccccc2)C(=O)N(C)c2ccc3scnc3c2)c1,,5.02 µM,Stability [2]: Stable
CN(C(=O)[C@H](Cc1ccccc1)NC(=O)c1cccc(C(=O)Nc2ccc(Br)cc2)c1)c1ccc2scnc2c1,> 204 µM,≥ 186 µM,
CN(C(=O)[C@H](Cc1ccccc1)NC(=O)c1cccc(C(=O)Nc2ccccc2)c1)c1ccc2scnc2c1,> 234 µM,22.4 µM,
CN(C(=O)[C@H](Cc1ccccc1)NC(=O)c1cccc(C(=O)Nc2ccncc2)c1)c1ccc2scnc2c1,37.6 µM,≥ 41.4 µM,
CN(C(=O)[C@H](Cc1ccccc1)NC(=O)c1cccc(C(=O)Nc2ccc(C(F)(F)F)cc2)c1)c1ccc2scnc2c1,88.2 µM,≥ 39.5 µM,
CN(C(=O)[C@H](Cc1ccccc1)NC(=O)c1cccc(C(=O)Nc2ccccc2N)c1)c1ccc2scnc2c1,25.4 µM,> 25.4 µM,
O=C(O)Cc1ccccc1Nc1c(Cl)cccc1Cl [DICLOFENAC],,,microsomal CLint (in vitro): 372 µL/min/mg
COCCNC(=O)c1cccc(C(=O)N[C@@H](Cc2ccccc2)C(=O)N(C)c2ccc3scnc3c2)c1,203 µM,15.7 µM,
CN(C(=O)[C@H](Cc1ccccc1)NC(=O)c1cccc(C(=O)Nc2ccc(OC(F)(F)F)cc2)c1)c1ccc2scnc2c1,118 µM,34.9 µM,
Cc1ccc(NC(=O)c2cccc(C(=O)N[C@@H](Cc3ccccc3)C(=O)N(C)c3ccc4scnc4c3)c2)cc1,> 228 µM,41.1 µM,
CN(C(=O)[C@H](Cc1ccccc1)NC(=O)c1cccc(C(=O)Nc2ccccc2F)c1)c1ccc2scnc2c1,66.4 µM,21.9 µM,
C[C@]12CC[C@H]3[C@@H](CCC4=CC(=O)CC[C@@]43C)[C@@H]1CC[C@@H]2O [TESTOSTERONE],,,microsomal CLint (in vitro): 82.8 µL/min/mg
CN(C(=O)[C@H](Cc1ccccc1)NC(=O)c1cccc(C(=O)Nc2cccc(N)c2)c1)c1ccc2scnc2c1,134 µM,23.7 µM,
CN(C(=O)[C@H](Cc1ccccc1)NC(=O)c1cccc(C(=O)Nc2ccc(Cl)cc2)c1)c1ccc2scnc2c1,> 220 µM,> 220 µM,
CC(=O)c1ccc(NC(=O)c2cccc(C(=O)N[C@@H](Cc3ccccc3)C(=O)N(C)c3ccc4scnc4c3)c2)cc1,165 µM,> 165 µM,
CN(C(=O)[C@H](Cc1ccccc1)NC(=O)c1cccc(C(=O)Nc2ccc(NC(=O)OC(C)(C)C)cc2)c1)c1ccc2scnc2c1,2.23 µM,> 2.23 µM,
CN(C(=O)[C@H](Cc1ccccc1)NC(=O)c1cccc(C(=O)Nc2cccc(F)c2)c1)c1ccc2scnc2c1,> 226 µM,> 226 µM,
COc1ccc(NC(=O)c2cccc(C(=O)N[C@@H](Cc3ccccc3)C(=O)N(C)c3ccc4scnc4c3)c2)cc1,> 222 µM,≥ 205 µM,
CN(C(=O)[C@H](Cc1ccccc1)NC(=O)c1cccc(C(=O)Nc2ccc(N)cc2)c1)c1ccc2scnc2c1,,3.57 µM,Activity [3]: Active; Activity [4]: Active; Stability [2]: Stable
CN(C(=O)[C@H](Cc1ccccc1)NC(=O)c1cccc(C(=O)Nc2ccccc2NC(=O)OC(C)(C)C)c1)c1ccc2scnc2c1,> 193 µM,,
CN(C(=O)[C@H](Cc1ccccc1)NC(=O)c1cccc(C(=O)Nc2cccc(NC(=O)OC(C)(C)C)c2)c1)c1ccc2scnc2c1,> 193 µM,> 193 µM,
CN(C(=O)[C@H](Cc1ccccc1)NC(=O)c1cccc(C(=O)NC2CCN(C(=O)OC(C)(C)C)CC2)c1)c1ccc2scnc2c1,29.3 µM,> 29.3 µM,
